What was measured:
Assay in all cases: relative viability (nuclei count vs DMSO), 5 days (fraction); higher = more cells survive
[1] = compound: CN1C=C(C2=CC=CC=C21)/C=C\3/C4=C(C=CC=N4)NC3=O + C[C@@H](Oc1cc(-c2cnn(C3CCNCC3)c2)cnc1N)c1c(Cl)ccc(F)c1Cl [Crizotinib] (partner 1 µM)
Summary of the method: (§1)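 Relative viability is defined as nuclei in treated wells over nuclei in vehicle wells. Duplicate plates were run and medians reported. Lung cancer cell lines in 1536-well plates were dosed by pin tool one day after seeding, with one drug or with a fixed anchor-drug dose plus five library-drug doses (not always all listed) in √10 steps, and nuclei were counted after 5 days.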

[2] = compound: CC(=O)Nc1cccc(-n2c(=O)n(C3CC3)c(=O)c3c(Nc4ccc(I)cc4F)n(C)c(=O)c(C)c32)c1 [Trametinib] + Nc1nc2[nH]cc(CCc3ccc(C(=O)N[C@@H](CCC(=O)O)C(=O)O)cc3)c2c(=O)[nH]1 [Pemetrexed] (partner 0.2 µM)
Summary of the method: as §1

[3] = compound: CN1C=C(C2=CC=CC=C21)/C=C\3/C4=C(C=CC=N4)NC3=O + CCNC(=O)c1noc(-c2cc(C(C)C)c(O)cc2O)c1-c1ccc(CN2CCOCC2)cc1 [Luminespib] (partner 0.01 µM)
Summary of the method: as §1

[4] = compound: CC(=O)Nc1cccc(-n2c(=O)n(C3CC3)c(=O)c3c(Nc4ccc(I)cc4F)n(C)c(=O)c(C)c32)c1 [Trametinib] + Cc1nc(Nc2ncc(C(=O)Nc3c(C)cccc3Cl)s2)cc(N2CCN(CCO)CC2)n1 [Dasatinib] (partner 0.075 µM)
Summary of the method: as §1

With NCI-H1666 the relative viability ([1]; first compound 0.02 µM) was 0.847, the relative viability ([1]; first compound 0.06325 µM) was 0.822 and the relative viability ([1]; first compound 0.2 µM) was 0.704. It also gave a relative viability ([1]; first compound 0.6325 µM) of 1.17, a relative viability ([1]; first compound 2 µM) of 0.927 and a relative viability ([2]; first compound 0.0025 µM) of 0.881. It also gave a relative viability ([2]; first compound 0.007906 µM) of 0.742, a relative viability ([2]; first compound 0.025 µM) of 0.753 and a relative viability ([2]; first compound 0.07906 µM) of 0.695. For the same cell line, the relative viability ([2]; first compound 0.25 µM) was 0.693, the relative viability ([3]; first compound 0.02 µM) was 1 and the relative viability ([3]; first compound 0.06325 µM) was 1.04. It also gave a relative viability ([3]; first compound 0.2 µM) of 1.05, a relative viability ([3]; first compound 0.6325 µM) of 0.99 and a relative viability ([3]; first compound 2 µM) of 1.04. The relative viability ([4]; first compound 0.0025 µM) was 0.812, the relative viability ([4]; first compound 0.007906 µM) was 0.841 and the relative viability ([4]; first compound 0.025 µM) was 0.755. For the same cell line, the relative viability ([4]; first compound 0.07906 µM) was 0.666 and the relative viability ([4]; first compound 0.25 µM) was 0.506.
In the case of PC-3 [JPC-3], the relative viability ([1]; first compound 0.02 µM) is reported as 0.878, the relative viability ([1]; first compound 0.06325 µM) is reported as 0.949 and the relative viability ([1]; first compound 0.2 µM) is reported as 0.954. For the same cell line, the relative viability ([1]; first compound 0.6325 µM) was 0.96, the relative viability ([1]; first compound 2 µM) was 0.966 and the relative viability ([2]; first compound 0.0025 µM) was 0.994. The relative viability ([2]; first compound 0.007906 µM) was 0.782, the relative viability ([2]; first compound 0.025 µM) was 0.773 and the relative viability ([2]; first compound 0.25 µM) was 0.598. For the same cell line, the relative viability ([3]; first compound 0.02 µM) was 0.628, the relative viability ([3]; first compound 0.06325 µM) was 0.595 and the relative viability ([3]; first compound 0.2 µM) was 0.647. It also gave a relative viability ([3]; first compound 0.6325 µM) of 0.682, a relative viability ([3]; first compound 2 µM) of 0.839 and a relative viability ([4]; first compound 0.0025 µM) of 1.06. The relative viability ([4]; first compound 0.007906 µM) was 0.927, the relative viability ([4]; first compound 0.025 µM) was 0.848 and the relative viability ([4]; first compound 0.07906 µM) was 0.823. It also gave a relative viability ([4]; first compound 0.25 µM) of 0.743.
Cell Line NCI-H1755 has a relative viability ([1]; first compound 0.02 µM) of 0.855, a relative viability ([1]; first compound 0.06325 µM) of 0.802 and a relative viability ([1]; first compound 0.2 µM) of 0.827. It also gave a relative viability ([1]; first compound 0.6325 µM) of 0.836, a relative viability ([1]; first compound 2 µM) of 0.919 and a relative viability ([2]; first compound 0.0025 µM) of 0.378. For the same cell line, the relative viability ([2]; first compound 0.007906 µM) was 0.452, the relative viability ([2]; first compound 0.025 µM) was 0.411 and the relative viability ([2]; first compound 0.07906 µM) was 0.47. It also gave a relative viability ([2]; first compound 0.25 µM) of 0.397, a relative viability ([3]; first compound 0.02 µM) of 0.376 and a relative viability ([3]; first compound 0.06325 µM) of 0.369. It also gave a relative viability ([3]; first compound 0.2 µM) of 0.541, a relative viability ([3]; first compound 0.6325 µM) of 0.37 and a relative viability ([3]; first compound 2 µM) of 0.387. The relative viability ([4]; first compound 0.0025 µM) was 0.409, the relative viability ([4]; first compound 0.007906 µM) was 0.433 and the relative viability ([4]; first compound 0.025 µM) was 0.492. For the same cell line, the relative viability ([4]; first compound 0.07906 µM) was 0.427 and the relative viability ([4]; first compound 0.25 µM) was 0.322.
RERF-LC-KJ gave a relative viability ([1]; first compound 0.02 µM) of 0.831, a relative viability ([1]; first compound 0.06325 µM) of 0.829 and a relative viability ([1]; first compound 0.2 µM) of 0.787. It also gave a relative viability ([1]; first compound 0.6325 µM) of 0.77, a relative viability ([1]; first compound 2 µM) of 0.718 and a relative viability ([2]; first compound 0.0025 µM) of 0.481. It also gave a relative viability ([2]; first compound 0.007906 µM) of 0.474, a relative viability ([2]; first compound 0.025 µM) of 0.435 and a relative viability ([2]; first compound 0.07906 µM) of 0.494. It also gave a relative viability ([2]; first compound 0.25 µM) of 0.422, a relative viability ([3]; first compound 0.02 µM) of 1.21 and a relative viability ([3]; first compound 0.06325 µM) of 1.14. The relative viability ([3]; first compound 0.2 µM) was 1.22, the relative viability ([3]; first compound 0.6325 µM) was 1.24 and the relative viability ([3]; first compound 2 µM) was 1.37. The relative viability ([4]; first compound 0.0025 µM) was 0.7, the relative viability ([4]; first compound 0.007906 µM) was 0.741 and the relative viability ([4]; first compound 0.025 µM) was 0.794. The relative viability ([4]; first compound 0.07906 µM) was 0.731 and the relative viability ([4]; first compound 0.25 µM) was 0.554.
With NCI-H647 the relative viability ([1]; first compound 0.02 µM) was 0.967, the relative viability ([1]; first compound 0.06325 µM) was 0.923 and the relative viability ([1]; first compound 0.2 µM) was 1.04. For the same cell line, the relative viability ([1]; first compound 0.6325 µM) was 1.03, the relative viability ([1]; first compound 2 µM) was 0.906 and the relative viability ([2]; first compound 0.0025 µM) was 0.188. It also gave a relative viability ([2]; first compound 0.007906 µM) of 0.183, a relative viability ([2]; first compound 0.025 µM) of 0.152 and a relative viability ([2]; first compound 0.07906 µM) of 0.155. It also gave a relative viability ([2]; first compound 0.25 µM) of 0.141, a relative viability ([3]; first compound 0.02 µM) of 0.177 and a relative viability ([3]; first compound 0.06325 µM) of 0.124. For the same cell line, the relative viability ([3]; first compound 0.2 µM) was 0.192, the relative viability ([3]; first compound 0.6325 µM) was 0.128 and the relative viability ([3]; first compound 2 µM) was 0.324. The relative viability ([4]; first compound 0.0025 µM) was 0.169, the relative viability ([4]; first compound 0.007906 µM) was 0.22 and the relative viability ([4]; first compound 0.025 µM) was 0.184. For the same cell line, the relative viability ([4]; first compound 0.07906 µM) was 0.107 and the relative viability ([4]; first compound 0.25 µM) was 0.0699.
BEN gave a relative viability ([1]; first compound 0.02 µM) of 0.896, a relative viability ([1]; first compound 0.06325 µM) of 0.807 and a relative viability ([1]; first compound 0.2 µM) of 0.761. It also gave a relative viability ([1]; first compound 0.6325 µM) of 0.779, a relative viability ([1]; first compound 2 µM) of 0.956 and a relative viability ([2]; first compound 0.0025 µM) of 0.706. It also gave a relative viability ([2]; first compound 0.007906 µM) of 0.752, a relative viability ([2]; first compound 0.025 µM) of 0.511 and a relative viability ([2]; first compound 0.07906 µM) of 0.45. For the same cell line, the relative viability ([2]; first compound 0.25 µM) was 0.646, the relative viability ([3]; first compound 0.02 µM) was 0.286 and the relative viability ([3]; first compound 0.06325 µM) was 0.394. For the same cell line, the relative viability ([3]; first compound 0.6325 µM) was 0.357, the relative viability ([3]; first compound 2 µM) was 0.281 and the relative viability ([4]; first compound 0.0025 µM) was 0.304. For the same cell line, the relative viability ([4]; first compound 0.007906 µM) was 0.296, the relative viability ([4]; first compound 0.025 µM) was 0.228 and the relative viability ([4]; first compound 0.07906 µM) was 0.269. It also gave a relative viability ([4]; first compound 0.25 µM) of 0.319.
Work on 201T yielded a relative viability ([1]; first compound 0.02 µM) of 1.01, a relative viability ([1]; first compound 0.06325 µM) of 1.04 and a relative viability ([1]; first compound 0.2 µM) of 1.05. For the same cell line, the relative viability ([1]; first compound 0.6325 µM) was 1.12, the relative viability ([1]; first compound 2 µM) was 1.01 and the relative viability ([2]; first compound 0.0025 µM) was 0.394. For the same cell line, the relative viability ([2]; first compound 0.007906 µM) was 0.362, the relative viability ([2]; first compound 0.025 µM) was 0.338 and the relative viability ([2]; first compound 0.07906 µM) was 0.341. It also gave a relative viability ([2]; first compound 0.25 µM) of 0.371, a relative viability ([3]; first compound 0.02 µM) of 1.01 and a relative viability ([3]; first compound 0.06325 µM) of 1.06. The relative viability ([3]; first compound 0.2 µM) was 1.12, the relative viability ([3]; first compound 0.6325 µM) was 1.03 and the relative viability ([3]; first compound 2 µM) was 1.15. The relative viability ([4]; first compound 0.0025 µM) was 0.555, the relative viability ([4]; first compound 0.007906 µM) was 0.59 and the relative viability ([4]; first compound 0.025 µM) was 0.579. It also gave a relative viability ([4]; first compound 0.07906 µM) of 0.521 and a relative viability ([4]; first compound 0.25 µM) of 0.484.
Cell Line LC-2-ad has a relative viability ([1]; first compound 0.02 µM) of 0.439, a relative viability ([1]; first compound 0.06325 µM) of 0.468 and a relative viability ([1]; first compound 0.6325 µM) of 0.409. The relative viability ([1]; first compound 2 µM) was 0.686, the relative viability ([2]; first compound 0.0025 µM) was 0.271 and the relative viability ([2]; first compound 0.007906 µM) was 0.259. It also gave a relative viability ([2]; first compound 0.025 µM) of 0.294, a relative viability ([2]; first compound 0.07906 µM) of 0.274 and a relative viability ([2]; first compound 0.25 µM) of 0.282. For the same cell line, the relative viability ([3]; first compound 0.02 µM) was 1.05, the relative viability ([3]; first compound 0.06325 µM) was 0.885 and the relative viability ([3]; first compound 0.2 µM) was 1.05. For the same cell line, the relative viability ([3]; first compound 0.6325 µM) was 1.22, the relative viability ([3]; first compound 2 µM) was 1.07 and the relative viability ([4]; first compound 0.0025 µM) was 0.484. It also gave a relative viability ([4]; first compound 0.007906 µM) of 0.485, a relative viability ([4]; first compound 0.025 µM) of 0.502 and a relative viability ([4]; first compound 0.07906 µM) of 0.313. For the same cell line, the relative viability ([4]; first compound 0.25 µM) was 0.301.

From the supplement of paper PMC10307832
